In EPA's ToxRefDB 2:

Legend:
[1] = tested on: hamster; conditions: Prenatal developmental toxicity study, golden syrian, Oral, Gavage/Intubation, dose end: 15 GD
[2] = tested on: rat; conditions: Multigenerational reproductive toxicity study, wistar, Oral, Feed, dose end: 2 generation
[3] = tested on: rat; conditions: Prenatal developmental toxicity study, other, Oral, Gavage/Intubation, dose end: 15 GD
[4] = tested on: mouse; conditions: Prenatal developmental toxicity study, cd1, Oral, Gavage/Intubation, dose end: 15 GD
[5] = tested on: rat; conditions: Subchronic oral toxicity in rodents, sprague dawley, Feed, dose end: 3 month
[6] = tested on: rabbit; conditions: Prenatal developmental toxicity study, other, Oral, Gavage/Intubation, dose end: 18 GD
[7] = tested on: rat; conditions: Multigenerational reproductive toxicity study, other, Oral, Feed, dose end: 2 generation
[8] = group: developmental, developmental / developmental malformation / bone / [other] + developmental / developmental malformation / bone / absent + developmental / …
[9] = group: maternal, systemic / in life observation / clinical signs / ataxia + systemic / in life observation / clinical signs / body temperature + systemic / …
[10] = group: offspring, systemic / in life observation / body weight / offspring (pup) weight + systemic / organ weight / spleen / absolute + systemic / organ …
[11] = group: parental, systemic / organ weight / spleen / absolute
[12] = group: parental, systemic / organ weight / spleen / absolute + systemic / in life observation / body weight / body weight gain + systemic / pathology …
[13] = group: reproductive, reproductive / reproductive performance / estrous cycle / abnormal
[14] = group: developmental, developmental / developmental malformation / bone / [other] + developmental / developmental malformation / bone / discontinuous
[15] = group: developmental, developmental / developmental malformation / bone / [other] + developmental / developmental malformation / bone / discontinuous + …
[16] = group: maternal, systemic / in life observation / water consumption / water consumption
[17] = group: maternal, systemic / in life observation / water consumption / water consumption + systemic / in life observation / body weight / body weight gain + …
[18] = group: developmental, systemic / in life observation / body weight / fetal weight
[19] = group: maternal, systemic / in life observation / water consumption / water consumption + systemic / in life observation / clinical signs / altered breathing…
[20] = group: cholinesterase, cholinesterase / cholinesterase / cholinesterase / cholinesterase (che)
[21] = group: systemic, systemic / hematology / anemia / anemia - hemolytic + systemic / in life observation / body weight / body weight gain + systemic / in life …
[22] = group: systemic, systemic / hematology / blood clotting / blood clotting - activated partial thromboplastin time + systemic / hematology / blood clotting / …
[23] = group: developmental, developmental / developmental malformation / bone / full supernumerary + systemic / in life observation / body weight / fetal weight
[24] = group: developmental, developmental / developmental malformation / bone / full supernumerary + systemic / in life observation / body weight / fetal weight + …
[25] = group: maternal, systemic / in life observation / body weight / body weight gain + systemic / in life observation / food consumption / food consumption + …
[26] = group: offspring, systemic / in life observation / body weight / offspring (pup) weight
[27] = group: offspring, systemic / in life observation / body weight / offspring (pup) weight + developmental / developmental malformation / bone / extra …
[28] = group: parental, systemic / pathology microscopic / spleen / hemosiderosis
[29] = group: parental, systemic / pathology microscopic / spleen / hemosiderosis + systemic / in life observation / body weight / body weight gain + systemic / in …

Question: Which results are given for `CC(C)(C#N)O[C@@H]1O[C@H](CO)[C@@H](O)[C@H](O)[C@H]1O` [Linamarin]?
Answer: LOAEL [1, 8]: > 140 mg/kg/day; NEL [1, 8]: 100 mg/kg/day; NOAEL [1, 8]: ≥ 140 mg/kg/day; LEL ([1]; group: developmental, developmental / developmental malformation / bone / absent + developmental / developmental malformation / bone / meningoencephalocele): 120 mg/kg/day; LEL [1, 9]: 100 mg/kg/day; LOAEL [1, 9]: > 140 mg/kg/day; NEL [1, 9]: 70 mg/kg/day; NOAEL [1, 9]: ≥ 140 mg/kg/day

Question: Which results are given for `Cc1cc(C)c(C2=C(OC(=O)CC(C)(C)C)C3(CCCC3)OC2=O)c(C)c1` [Spiromesifen]?
Answer: LEL [2, 10]: 13.2 mg/kg/day; LOAEL [2, 10]: 13.2 mg/kg/day; NEL [2, 10]: 3.3 mg/kg/day; NOAEL [2, 10]: 3.3 mg/kg/day; LEL [2, 11]: 13.2 mg/kg/day; LOAEL [2, 11]: 13.2 mg/kg/day; NEL [2, 12]: 3.3 mg/kg/day; NOAEL [2, 12]: 3.3 mg/kg/day; LEL [2, 13]: 18 mg/kg/day; LOAEL [2, 13]: 18 mg/kg/day; NEL [2, 13]: 4.6 mg/kg/day; NOAEL [2, 13]: 4.6 mg/kg/day

Question: What does the source list for `OCCOCCO` [Diethylene glycol]?
Answer: LEL [3, 14]: 4470 mg/kg/day; LOAEL [3, 14]: 4470 mg/kg/day; NEL [3, 15]: 1120 mg/kg/day; NOAEL [3, 15]: 1120 mg/kg/day; LEL [3, 16]: 4470 mg/kg/day; LOAEL [3, 16]: 4470 mg/kg/day; NEL [3, 17]: 1120 mg/kg/day; NOAEL [3, 17]: 1120 mg/kg/day; LEL [4, 18]: 11200 mg/kg/day; LOAEL [4, 18]: 11200 mg/kg/day; NEL [4, 18]: 2800 mg/kg/day; NOAEL [4, 18]: 2800 mg/kg/day; LEL [4, 16]: 2800 mg/kg/day; LOAEL [4, 16]: 2800 mg/kg/day; NEL [4, 19]: 559 mg/kg/day; NOAEL [4, 19]: 559 mg/kg/day

Question: For `C#CCN1CC(=O)N(COC(=O)C2C(C=C(C)C)C2(C)C)C1=O` (stereo not given) [Imiprothrin], which LEL [5, 20] is on record?
Answer: 399 mg/kg/day

Question: What about the LOAEL [5, 20] of the same compound?
Answer: > 657 mg/kg/day

Question: And the NEL [5, 20]?
Answer: 197 mg/kg/day

Question: What about the NOAEL [5, 20] of the same compound?
Answer: ≥ 657 mg/kg/day

Question: And the LOAEL [5, 21]?
Answer: 179 mg/kg/day

Question: And the NOAEL [5, 21]?
Answer: 5.9 mg/kg/day

Question: What about the LEL [5, 22] of the same compound?
Answer: 5.9 mg/kg/day

Question: And the NEL [5, 22]?
Answer: < 5.9 mg/kg/day

Question: And the LEL [6, 23]?
Answer: 100 mg/kg/day

Question: And the LOAEL [6, 23]?
Answer: 100 mg/kg/day

Question: And the NEL [6, 24]?
Answer: 30 mg/kg/day

Question: What about the NOAEL [6, 24] of the same compound?
Answer: 30 mg/kg/day

Question: And the LOAEL ([6]; group: maternal, systemic / in life observation / body weight / body weight gain + systemic / in life observation / food consumption / food consumption)?
Answer: 100 mg/kg/day

Question: And the LEL [6, 25]?
Answer: 100 mg/kg/day

Question: And the NEL [6, 25]?
Answer: 30 mg/kg/day

Question: And the NOAEL [6, 25]?
Answer: 30 mg/kg/day

Question: And the NEL [7, 26]?
Answer: 126 mg/kg/day

Question: What about the NOAEL [7, 26] of the same compound?
Answer: 126 mg/kg/day

Question: And the LEL [7, 27]?
Answer: 369 mg/kg/day

Question: And the LOAEL [7, 27]?
Answer: 369 mg/kg/day

Question: What about the LEL [7, 28] of the same compound?
Answer: 144 mg/kg/day

Question: And the LOAEL [7, 28]?
Answer: 144 mg/kg/day

Question: And the NEL [7, 29]?
Answer: 14.7 mg/kg/day

Question: And the NOAEL [7, 29]?
Answer: 14.7 mg/kg/day
